Reference: patent US20080279912A1, “Use of Cis-Epoxyeicosatrienoic Acids And Inhibitors of Soluble Epoxide Hydrolase to Alleviate Eye Disorders” (Regents of the University of California Office of …, priority 2005, published 2008)

How the values were obtained:
[1] = test system: New Zealand white rabbits; experiment: Intraocular pressure in rabbits after treatment of the eye (tonometer); assay type: in vivo; conditions: one rabbit per treatment, 50 μL/eye; for Change in intraocular pressure (IOP treated eye minus control eye) after topical instillation: 100 μg/mL in artificial tears with 1% DMSO; for Time after treatment at which IOP decline appeared: 100 μg/mL, topical
Protocol: Female New Zealand white rabbits (2.7-3.0 kg) were obtained from Harlan (Indianapolis, Ind.). On test day, rabbits were lightly tranquilized with torbugesic/acepromazine at 0.04 mg/kg, administered subcutaneously. Ten to twenty minutes after administration of the tranquilizer, a drop of proparacaine hydrochloride (0.5% ophthalmic solution) was instilled in each eye to numb the eye prior to taking the intraocular pressure measurement. After 2-5 min, intraocular pressure in each eye (right and left) was measured using a tonometer (Tono-Pen®, Mentor Opthalmics, Santa Barbara, Calif.). Measurements were taken every 3-5 minutes to obtain baseline pressure. Then various treatments were applied (right eye) and after 3-5 minutes measurements were again taken every 3-5 minutes. Data are expressed as the change in intraocular pressure (“IOP”) in the treated eye compared to the control eye (IOP in treated eye—IOP in control eye). […] DMSO is also known to aid penetration through the skin. For a treatment to be effective, it must penetrate the cornea. Later treatments utilized subconjunctival injection. This delivers the compound below the conjunctiva where it is rapidly absorbed, avoiding issues of absorption.
Treatments: Each rabbit was administered one of the following treatments: (1). Epoxyeicosatrienoic acids (EETs) only, 100 μg/mL carboxylmethyl cellulose artificial tears containing 1% dimethyl sulfoxide (DMSO), 50 μL/eye (2). […] EETs only, 10 μg/mL carboxylmethyl cellulose artificial tears containing 1% DMSO, 0.1 cc/eye administered subconjunctivally (4).
Compounds used for the topical treatment of eye diseases become clinically useful only if they can penetrate the intact epithelium of the cornea and conjunctiva and achieve clinically useful concentrations within the eye. Thus for these trials we used both instillation by drops and by subconjunctival injections.

[2] = Stability of EETs on storage, handling and administration; assay type: physicochemical; conditions: if not exposed to acidic conditions or to sEH
Metabolic stability = assay type: in vitro ADME
sEH = biological target: T1, sEH (Homo sapiens, UniProt P34913); experiment: Inhibition of sEH (standard assays, stated in text); assay type: biochemical
T1 sequence (P34913 1-555): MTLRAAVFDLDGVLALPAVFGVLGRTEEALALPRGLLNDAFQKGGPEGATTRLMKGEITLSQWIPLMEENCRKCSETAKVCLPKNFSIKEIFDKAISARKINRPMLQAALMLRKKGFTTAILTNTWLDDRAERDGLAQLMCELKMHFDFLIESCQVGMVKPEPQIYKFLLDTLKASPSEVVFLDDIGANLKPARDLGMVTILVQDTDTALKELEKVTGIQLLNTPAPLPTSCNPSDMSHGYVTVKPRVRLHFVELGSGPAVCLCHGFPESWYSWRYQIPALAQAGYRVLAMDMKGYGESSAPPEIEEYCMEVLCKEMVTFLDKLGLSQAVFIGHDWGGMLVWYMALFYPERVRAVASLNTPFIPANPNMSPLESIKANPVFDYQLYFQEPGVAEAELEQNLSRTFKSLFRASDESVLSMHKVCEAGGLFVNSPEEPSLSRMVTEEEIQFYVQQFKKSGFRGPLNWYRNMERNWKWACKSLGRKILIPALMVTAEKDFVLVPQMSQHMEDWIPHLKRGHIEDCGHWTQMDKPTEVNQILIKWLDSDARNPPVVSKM
Description: Derivatives of urea are transition state mimetics that form a preferred group of sEH inhibitors. […] Any particular urea derivative or other compound can be easily tested for its ability to inhibit sEH by standard assays, such as those discussed herein. The production and testing of urea and carbamate derivatives as sEH inhibitors is set forth in detail in, for example, Morisseau et al., Proc Natl Acad Sci (USA) 96:8849-8854 (1999).
Any of a number of standard assays for determining epoxide hydrolase activity can be used to determine inhibition of sEH. […] Suitable in vitro assays are described in Zeldin et al., J. Biol. Chem. 268:6402-6407 (1993). Suitable in vivo assays are described in Zeldin et al., Arch Biochem Biophys 330:87-96 (1996).

| Compound | Change in intraocular pressure (IOP treated eye minus control eye) after topical instillation [1] | Time after treatment at which IOP decline appeared [1] | Stability [2] | Metabolic stability (Metabolic stability) | Activity as an inhibitor of sEH (sEH) |
| --- | --- | --- | --- | --- | --- |
| O=C(O)CCCCCCCCCCCNC(=O)NC12CC3CC(CC(C3)C1)C2 [AUDA, 12-(3-Adamantan-1-yl-ureido)dodecanoic acid] | distinct decline in pressure | about 20 minutes | – | – | – |
| cis-Epoxyeicosatrienoic acids [EETs] | definite declining trend | about 45 minutes | stable | – | – |
| CCCCCCCCCCCCNC(=O)NC12CC3CC(CC(C3)C1)C2 [ADU, N-Adamantyl-N′-dodecyl urea] | – | – | – | metabolically stable | particularly high activity |
